Patent US20100173890A1, “Compounds, Process for their Preparation, Intermediates, Pharmaceutical Compositions and their use in the Treatment of 5-HT6 Mediated Disorders such as Alzheimer's Disease, Cognitive Disorders, Cognitive Impairment Associated with Schizophrenia, Obesity and Parkinson's Disease” (AstraZeneca AB, priority 2005, published 2010)

Biological target: T1, Rat Striatal 5-HT6 Receptors (Rattus norvegicus, UniProt P31388)
T1 construct: Striatal tissue from adult rats (Sprague-Dawley, 320-370 g, B & K Sweden) were dissected out, weighed and homogenized; from tissue; host or cells: rat striatum (Sprague-Dawley) membranes
T1 sequence (P31388 whole entry): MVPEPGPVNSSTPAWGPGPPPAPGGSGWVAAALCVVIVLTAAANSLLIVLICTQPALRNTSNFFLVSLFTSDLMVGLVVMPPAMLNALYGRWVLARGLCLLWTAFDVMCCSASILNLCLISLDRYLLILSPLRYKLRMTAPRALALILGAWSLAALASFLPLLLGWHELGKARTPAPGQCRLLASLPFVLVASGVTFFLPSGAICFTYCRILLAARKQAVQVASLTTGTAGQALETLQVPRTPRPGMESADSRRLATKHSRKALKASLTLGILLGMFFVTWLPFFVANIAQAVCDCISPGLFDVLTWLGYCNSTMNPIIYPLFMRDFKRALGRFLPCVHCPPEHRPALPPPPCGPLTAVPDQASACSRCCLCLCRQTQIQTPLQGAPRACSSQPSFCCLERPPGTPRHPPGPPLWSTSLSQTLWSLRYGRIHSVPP
Experiment: [125I]SB258585 binding to rat striatal 5-HT6 receptors
Settings: competition with 0.5-1 nM [125I]SB258585, rat striatal membranes
Description: Method for [125I]SB258585 Binding to Rat Striatal 5-HT6 Receptors
[^125I]SB258585 (1) with specific radioactivity 2000 Ci/mmol was purchased from Amersham Biosciences Europe GmbH, Freiburg, Germany. Other chemicals were is purchased from commercial sources and were of analytical grade.
Striatal tissue from adult rats (Sprague-Dawley, 320-370 g, B & K Sweden) were dissected out, weighed and homogenized in buffer containing 50 mM Tris-HCl, 4 mM MgCl2, 1 mM EDTA, 10 μM pargyline and protease inhibitor (Complete, Roche Diagnostics) pH 7.4 using an Ultra-Turrax T8 (IKA Labortechnik, Germany). The tissue homogenate was centrifuged at 48 000×g for 10 min and the pellet was resuspended and recentrifuged as above. […]
Saturation binding studies were carried out in duplicate with 1-3 mg w.w. per tube in 0.5 ml buffer (50 mM Tris, 4 mM MgCl2, 100 mM NaCl, 1 mM EDTA, 5 mM ascorbate and 10 μM pargyline at pH 7.4), 0.2 nM [^125I]SB258585 and unlabelled SB258585 to give a final concentration range of 0.23-20 nM (12 conc.). Non-specific binding was determined in the presence of 10 μM methiothepin. […] The radioactivity was determined in a Packard Tri-Carb 2900TR liquid scintillation counter: Data were analyzed by non-linear regression analyses using PRISM 4.00 (GraphPad Software Inc., San Diego, Calif.). […]

SMILES: O=S(=O)(Nc1cccc(Cl)c1)c1ccc2c(c1)CNCCO2 [Example 3, N-(3-Chlorophenyl)-2,3,4,5-tetrahydro-1,4-benzoxazepine-7-sulfonamide]
- Ki: 82 ± 28 nM
